Measured values published in BindingDB's records for doi:10.1016/j.bmcl.2013.08.111 (University of Michigan, 2013).

Biological target: Catenin beta-1/Transcription factor 7-like 2 (Homo sapiens, UniProt P35222+Q9NQB0)
Assay: Inhibition of human TCF4/ flag epitope-tagged beta-catenin (unknown origin) interaction transfected in human HCT116 cells after 24 hrs by beta-galactosidase/luciferase reporter gene assay

Sequence of Catenin beta-1/Transcription factor 7-like 2 (P35222 whole entry): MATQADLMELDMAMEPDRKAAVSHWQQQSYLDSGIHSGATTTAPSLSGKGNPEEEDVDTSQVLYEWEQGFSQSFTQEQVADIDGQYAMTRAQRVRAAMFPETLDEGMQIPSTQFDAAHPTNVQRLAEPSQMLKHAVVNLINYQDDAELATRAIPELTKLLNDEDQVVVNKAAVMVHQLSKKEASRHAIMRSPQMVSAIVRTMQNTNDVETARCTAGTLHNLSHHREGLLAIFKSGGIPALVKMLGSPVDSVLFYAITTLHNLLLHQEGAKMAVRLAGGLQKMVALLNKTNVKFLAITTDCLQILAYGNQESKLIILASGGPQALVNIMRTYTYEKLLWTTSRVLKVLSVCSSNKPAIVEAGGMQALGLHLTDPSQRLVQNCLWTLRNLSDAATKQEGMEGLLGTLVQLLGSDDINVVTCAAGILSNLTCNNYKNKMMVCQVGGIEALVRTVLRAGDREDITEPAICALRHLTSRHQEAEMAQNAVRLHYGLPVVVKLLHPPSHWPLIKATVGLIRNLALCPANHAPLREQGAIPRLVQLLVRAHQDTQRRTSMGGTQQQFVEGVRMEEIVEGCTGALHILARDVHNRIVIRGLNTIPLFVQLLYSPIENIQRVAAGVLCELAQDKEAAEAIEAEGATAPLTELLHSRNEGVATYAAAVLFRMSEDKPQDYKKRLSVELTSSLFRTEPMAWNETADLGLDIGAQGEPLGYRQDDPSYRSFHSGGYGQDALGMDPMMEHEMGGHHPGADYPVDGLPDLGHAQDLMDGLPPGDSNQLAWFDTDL
Sequence of Catenin beta-1/Transcription factor 7-like 2 (Q9NQB0 whole entry): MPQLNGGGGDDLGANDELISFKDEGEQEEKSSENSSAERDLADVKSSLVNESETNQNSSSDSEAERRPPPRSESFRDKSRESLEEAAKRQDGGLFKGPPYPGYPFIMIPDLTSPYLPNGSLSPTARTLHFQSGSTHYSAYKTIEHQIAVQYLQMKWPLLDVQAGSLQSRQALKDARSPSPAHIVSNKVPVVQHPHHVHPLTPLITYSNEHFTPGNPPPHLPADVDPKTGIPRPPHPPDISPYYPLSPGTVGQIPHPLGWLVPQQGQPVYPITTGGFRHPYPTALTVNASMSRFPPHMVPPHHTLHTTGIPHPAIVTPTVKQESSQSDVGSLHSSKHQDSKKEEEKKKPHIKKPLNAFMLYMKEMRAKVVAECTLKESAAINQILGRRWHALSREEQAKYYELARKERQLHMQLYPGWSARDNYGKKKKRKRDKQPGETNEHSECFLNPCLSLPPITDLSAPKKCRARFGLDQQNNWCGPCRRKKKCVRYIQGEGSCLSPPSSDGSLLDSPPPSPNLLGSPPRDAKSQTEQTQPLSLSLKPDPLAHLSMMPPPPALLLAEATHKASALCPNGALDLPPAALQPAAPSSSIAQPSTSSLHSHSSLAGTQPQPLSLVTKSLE

- IC50: 300 nM
Structure (SMILES): Cn1nc(-c2ccc(Cl)cc2)nc2c(=O)n(C)c(=O)nc1-2 [3-(4-Chloro-phenyl)-1,6-dimethyl-1H-pyrimido[5,4-e][1,2,4]triazine-5,7-dione]
